Test results published in patent US20100022637A1, “IDENTIFICATION OF ANTI-CANCER COMPOUNDS AND COMPOUNDS FOR TREATING HUNTINGTON'S DISEASE AND METHODS OF TREATMENT THEREOF” (THE TRUSTEES OF COLUMBIA UNIVERSITY IN THE CITY OF NEW YORK, priority 2005, published 2010).
Values belong to the compound of their own block, whether it stands above or below them.

Assays:
N548 mutant cells = assay: cells; settings: for Activity: scale not defined; for maximal fold induction: read-out: N548 Mut: Max, maximum rescue expressed as fold over DMSO treated N548 mutant cells
Procedure: Embryonic rat striatal neurons were conditionally immortalized by stably transfecting a temperature-sensitive SV40 large T-antigen (T-ag) to generate the ST14A cell line. ST14A cells proliferate at the permissive temperature (33° C.), but stop dividing at 39° C., as a result of T-ag degradation. […] As htt protein context modulates polyQ toxicity, testing these different length htt proteins could provide insight into the basis for context dependence.
ST14A Assay System: Calcein acetoxylmethyl ester (AM) (Molecular Probes, Eugene, Oreg.) is a non-fluorescent, membrane-permeable compound that is cleaved by intracellular esterases, which subsequently forms the anionic, fluorescent compound, calcein, that cannot permeate the cell membrane. […] A fluorescence viability assay, that is based on conversion of a non-fluorescent substrate (calcein AM) to a fluorescent product by nonspecific esterases in live cells, was employed to monitor cell death in wild type (wt) ST14A-Htt and mut ST14A-Htt cell lines. Cell death is indicated by a decrease in fluorescence. […] 3 μl of each compound was transferred from daughter plates to triplicate assay plates for a final assay concentration of 4 μg/ml in 0.1% DMSO (10 μM for NINDS compounds). Cells were incubated at 33° C. for 3 h to enhance attachment and then shifted to 39° C. (with 5% CO2). After 3 days (d), cells were washed 10 times with phosphate buffered saline (PBS) leaving 20 μl residual PBS per well, and 20 μl of 2 μg/ml calcein AM (Molecular probes) in PBS was added per well. […] The fluorescence intensity in each well was normalized to the median of each plate. The median normalized fluorescence of each triplicate assay wells was determined. A well with more than 50% increase in intensity above the median signal intensity was considered a “hit.”
Assay Development: An assay was developed for detecting mutant htt-induced cell death in ST14A cells in a 384-well plate format. A calcein AM-based method was used to detect cell viability, and optimized the cell number and time course for this method. […] A cell number titration was performed to determine the cell density at which calcein fluorescence was not saturated and the coefficient of variation (CV) was low (FIG. 14A-B). A low CV is critical for a high-throughput assay as it decreases noise and enhances sensitivity. […] Next, the kinetics of the fluorescence signal were determined.
Next, the serum concentrations that induce cell death in these cells were determined. Cells were seeded in decreasing serum (IFS) concentrations (5 to 0%), and cell viability was assayed after 3 d using the calcein AM assay (FIG. 14E).
A Z′ value of greater than 0 is required for a usable assay, with a maximum value of 1.0 for an ideal assay. For the assay, calcein fluorescence was used on the day of seeding to represent 100% rescue. The difference in calcein fluorescence signal on the day of seeding and after different number of days under serum deprivation was determined and used to calculate the Z′ factor. […] About 47,000 compounds were assayed in a 384-well plate format in triplicate to enhance the reliability of the primary screen.

[1] = Rescue and toxicity of Compound 164 and analogs (Table 4); settings: for TC50: Table 4, toxicity
[2] = nonselective hits (rescue also parental ST14A), 0.5% IFS, 39° C., 3 d
[3] = Rattus norvegicus, read-out: EC50 based on activity in N548 mutant cells

EC50 (N548 mutant cells; Rattus norvegicus, ST14A, 72 h): 500 nM
Structure (SMILES): CCCC1O[C@@H]2C[C@H]3[C@@H]4CCC5=CC(=O)C=C[C@]5(C)[C@H]4[C@@H](O)C[C@]3(C)[C@]2(C(=O)CO)O1 (stereo partly drawn) [Budesonide, reference compound]
Activity (N548 mutant cells; nonselective hits): 2

EC50 (N548 mutant cells; Rattus norvegicus, ST14A, 72 h): 1000 nM
Structure (SMILES): CCOC(=O)C(C)(C)Oc1ccc(Cl)cc1 [Clofibrate, reference compound]
Activity (N548 mutant cells; nonselective hits): 2

Structure (SMILES): O=C(O)c1cc([N+](=O)[O-])ccc1NCCCc1ccccc1 [Compound 2-NPPB, reference compound]
EC50 (N548 mutant cells; [2]): 10000 nM
Activity (N548 mutant cells; nonselective hits): 1.5
CC50 (N548 mutant cells; read-out: TC50, nonselective hits, maximum concentration tested 80 μM): 40000 nM

Structure (SMILES): CC[C@@]1(C)CC(CCN(Cc2ccco2)C(C)=O)(c2ccccc2)CCO1 (stereo partly drawn) [Compound 164-1]
EC50 [1]: 2000 nM
TC50 [1]: 8000 nM

Structure (SMILES): Cc1ccc(C2(CCNC(=O)c3ccc(Br)o3)CCOC(C(C)C)C2)cc1 (stereo not drawn) [Compound 164-2]
EC50 [1]: 440 nM
Max % Toxicity ([1]; Table 4, cell model not stated): 53.69%

Structure (SMILES): CCC(=O)N(CCC(Cc1ccccc1)C1CCOC(C)(C)C1)Cc1ccco1 (stereo not drawn) [Compound 164-3]
EC50 [1]: 200 nM
TC50 [1]: 8000 nM
Max % Toxicity ([1]; Table 4, cell model not stated): 56.80%

Structure (SMILES): CC(c1ccccc1)N(CCC(Cc1ccccc1)C1COCC(C)(C)C1)C(=O)c1ccco1 (stereo not drawn) [Compound 164-4]
TC50 [1]: 400 nM
Max % Toxicity ([1]; Table 4, cell model not stated): 64.22%

Structure (SMILES): COc1ccc(CN(CCC(c2ccccc2)C2CCOC(C)(C)C2)C(=O)c2ccco2)cc1OC (stereo not drawn) [Compound 164-5, N-(3,4-dimethoxybenzyl)-N-[3-(2,2-dimethyltetrahydro-2H-pyran-4-yl)-3-phenylpropyl]-2-furamide]
EC50 [1]: 200 nM
TC50 [1]: 6000 nM
Max % Toxicity ([1]; Table 4, cell model not stated): 18.43%

Structure (SMILES): COc1ccc(CN(CCC2(c3ccc(C)cc3)CCOC(C)(C)C2)C(=O)c2ccco2)cc1 (stereo not drawn) [Compound 164-6]
EC50 [1]: 100 nM
TC50 [1]: 3000 nM
Max % Toxicity ([1]; Table 4, cell model not stated): 60.14%

Structure (SMILES): COc1ccc(CN(CCC(c2ccc(OC(C)C)cc2)C(C)C)C(=O)c2ccco2)cc1 (stereo not drawn) [Compound 164-7]
EC50 [1]: 100 nM
TC50 [1]: 400 nM
Max % Toxicity ([1]; Table 4, cell model not stated): 63.90%

Structure (SMILES): COc1ccc(CN(CCC2(c3ccccc3)CCOC(C)(C)C2)C(C)=O)cc1OC (stereo not drawn) [Compound 164-9]
Max % Rescue ([1]; Table 4, cell model not stated): 28.56%
Max % Toxicity ([1]; Table 4, cell model not stated): 19.60%

Structure (SMILES): COc1cc([C@@H]2c3cc4c(cc3[C@H](O)[C@H]3COC(=O)[C@H]23)OCO4)cc(OC)c1OC [Podophyllotoxin, reference compound]
maximal fold induction (N548 mutant cells; Rattus norvegicus, 72 h): 2.5
EC50 (N548 mutant cells; [3]): 25 nM

Structure (SMILES): CCCCC[C@H](O)/C=C/[C@H]1[C@H](O)CC(=O)[C@@H]1C/C=C\CCCC(=O)O [Prostaglandin E2, reference compound]
EC50 (N548 mutant cells; [2]): 100 nM
Activity (N548 mutant cells; nonselective hits): 2

EC50 (N548 mutant cells; Rattus norvegicus, ST14A, 72 h): 500 nM
Structure (SMILES): C[C@H](O)[C@H](O)[C@H]1CNc2nc(N)[nH]c(=O)c2N1 [Tetrahydrobiopterin, reference compound]
Activity (N548 mutant cells; nonselective hits): 2.5

EC50 (N548 mutant cells; Rattus norvegicus, ST14A, 72 h): 600 nM
Structure (SMILES): CC1=C(/C=C/C(C)=C/C=C/C(C)=C/C(=O)O)C(C)(C)CCC1 [Tretinoin, reference compound]
Activity (N548 mutant cells; nonselective hits): 2.5

Structure (SMILES): CC1OC(=O)C(C(C)C)NC(=O)C(C(C)C)OC(=O)C(C(C)C)NC(=O)C(C)OC(=O)C(C(C)C)NC(=O)C(C(C)C)OC(=O)C(C(C)C)NC(=O)C(C)OC(O)C(C(C)C)NC(=O)C(C(C)C)OC(=O)C(C(C)C)NC1=O (stereo not drawn) [Valinomycin A, reference compound]
maximal fold induction (N548 mutant cells; Rattus norvegicus, 72 h): 2.5
EC50 (N548 mutant cells; [3]): 150 nM

Structure (SMILES): CC[C@]1(O)C[C@H]2CN(CCc3c([nH]c4ccccc34)[C@@](C(=O)OC)(c3cc4c(cc3OC)N(C=O)[C@H]3[C@@](O)(C(=O)OC)[C@H](OC(C)=O)[C@]5(CC)C=CCN6CC[C@]43[C@@H]65)C2)C1 [Vincristine, reference compound]
N548 Mut: Max, maximum rescue expressed as fold over DMSO treated N548 mutant cells (N548 mutant cells; 0.5% IFS, 39° C., 3 d): 2.5 fold
EC50 (N548 mutant cells; read-out: EC50 based on activity in N548 mutant cells): 40 nM

EC50 (N548 mutant cells; Rattus norvegicus, ST14A, 72 h): 5000 nM
Structure (SMILES): CCCOc1ccccc1-c1nc2nn[nH]c2c(=O)[nH]1 [Zaprinast, reference compound]
Activity (N548 mutant cells; nonselective hits): 1.5

EC50 (N548 mutant cells; [3]): 4 µg/mL
Structure (SMILES): CCCc1cc(OC(=O)C(CC)c2ccccc2)n(-c2cccc(F)c2)n1 (stereo not drawn) [revertin-1b]
selectivity profile of cell death rescue in panel of htt expressing cell lines (N548 mutant cells; N63, N548, FL htt cell lines, in words): selectively rescued cell death in all mutant htt-expressing cell lines
maximal fold induction (N548 mutant cells; Rattus norvegicus, 72 h): 25

EC50 (N548 mutant cells; [3]): 2 µg/mL
Structure (SMILES): COc1ccccc1C(CCN(C(C)=O)C(C)c1ccccc1)C1CCC(C)(C)OC1 (stereo not drawn) [revertin-3]
maximal fold induction (N548 mutant cells; Rattus norvegicus, 72 h): 4

EC50 (N548 mutant cells; [3]): 4 µg/mL
Structure (SMILES): COc1cc(CC(=O)NC(C)C2C(=O)CC3C2C3(C)C)cc(OC)c1OC (stereo not drawn) [revertin-4]
maximal fold induction (N548 mutant cells; Rattus norvegicus, 72 h): 1.5
